Tests used:
Test in all cases: relative viability (nuclei count vs DMSO), 5 days (fraction); higher = more cells survive
[1] = compound: CN(C)CC1=CC(=CC=C1)N=C(C2=CC=CC=C2)C3=C(NC4=C3C=CC(=C4)C(=O)N(C)C)O + Nc1ncn([C@H]2C[C@H](O)[C@@H](CO)O2)c(=O)n1 [Decitabine] (partner 2 µM)
In short: (§1)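 For relative viability, nuclei counts in treated wells were divided by those in vehicle wells. Lung cancer cell lines had been pin-tool dosed in 1536-well plates the day after seeding and cultured for 5 days, then fixed and stained in one step (final 0.05% Triton X-100, 1% formaldehyde, 1 ug/ml Hoechst) and imaged at 4×. Doses were one drug alone or a fixed anchor-drug dose plus five library-drug doses (not always all listed) in √10 steps, and values are duplicate-plate medians.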

[2] = compound: CN(C)CC1=CC(=CC=C1)N=C(C2=CC=CC=C2)C3=C(NC4=C3C=CC(=C4)C(=O)N(C)C)O + Cc1cc(Nc2cc(N3CCN(C)CC3)nc(Sc3ccc(NC(=O)C4CC4)cc3)n2)n[nH]1 [Tozasertib] (partner 0.1 µM)
In short: as §1

[3] = compound: CN(C)CC1=CC(=CC=C1)N=C(C2=CC=CC=C2)C3=C(NC4=C3C=CC(=C4)C(=O)N(C)C)O + CC(C)C[C@H](NC(=O)[C@H](Cc1ccccc1)NC(=O)c1cnccn1)B(O)O [Bortezomib] (partner 0.002 µM)
In short: as §1

[4] = compound: CN(C)CC1=CC(=CC=C1)N=C(C2=CC=CC=C2)C3=C(NC4=C3C=CC(=C4)C(=O)N(C)C)O + NC(=O)Nc1cc(-c2cccc(F)c2)sc1C(=O)N[C@H]1CCCNC1 [AZD7762] (partner 0.2 µM)
In short: as §1

| Cell Line | relative viability ([1]; first compound 0.08 µM) | relative viability ([1]; first compound 0.253 µM) | relative viability ([1]; first compound 0.8 µM) | relative viability ([1]; first compound 2.53 µM) | relative viability ([1]; first compound 8 µM) | relative viability ([2]; first compound 0.08 µM) | relative viability ([2]; first compound 0.253 µM) | relative viability ([2]; first compound 0.8 µM) | relative viability ([2]; first compound 2.53 µM) | relative viability ([2]; first compound 8 µM) | relative viability ([3]; first compound 0.08 µM) | relative viability ([3]; first compound 0.253 µM) | relative viability ([3]; first compound 0.8 µM) | relative viability ([3]; first compound 2.53 µM) | relative viability ([3]; first compound 8 µM) | relative viability ([4]; first compound 0.08 µM) | relative viability ([4]; first compound 0.253 µM) | relative viability ([4]; first compound 0.8 µM) | relative viability ([4]; first compound 2.53 µM) | relative viability ([4]; first compound 8 µM) |
| --- | --- | --- | --- | --- | --- | --- | --- | --- | --- | --- | --- | --- | --- | --- | --- | --- | --- | --- | --- | --- |
| NCI-H1651 | 0.665 | 0.622 | 0.616 | 0.423 | 0.643 | 0.621 | 0.755 | 0.71 | 0.595 | 0.692 | 0.959 | 0.984 | 0.957 | 0.794 | 0.932 | 0.483 | 0.474 | 0.414 | 0.435 | 0.397 |
| NCI-H1437 | 0.559 | 0.609 | 0.576 | 0.577 | 0.685 | 0.431 | 0.443 | 0.37 | 0.387 | 0.4 | 0.462 | 0.63 | 0.615 | 0.482 | 0.56 | 1.19 | 1.16 | 1.16 | 1.03 | 1.12 |
| HOP-62 | 0.21 | 0.282 | 0.195 | 0.206 | 0.262 | 0.389 | 0.383 | 0.364 | 0.334 | 0.376 | 0.875 | 1.25 | 0.746 | 0.801 | 0.72 | 0.505 | 0.566 | 0.496 | 0.693 | 0.673 |
| NCI-H2347 | 0.631 | 0.634 | 0.583 | 0.635 | 0.679 | 0.615 | 0.522 | 0.522 | 0.56 | 0.603 | 0.828 | 1.22 | 0.83 | 1.17 | 1.12 | 0.898 | 0.647 | 0.7 | 0.719 | 0.734 |
| EPLC-272H | 0.39 | 0.422 | 0.297 | 0.471 | 0.383 | 0.351 | 0.392 | 0.303 | 0.278 | 0.272 | 0.949 | 1.16 | 0.903 | 1.02 | 1.15 | 0.229 | 0.252 | 0.203 | 0.302 | 0.214 |
| NCI-H2405 | 0.78 | 0.77 | 0.758 | 0.67 | 0.696 | 0.748 | 0.74 | 0.748 | 0.662 | 0.645 | 0.976 | 1.02 | 0.976 | 0.954 | 0.951 | 0.715 | 0.72 | 0.713 | 0.659 | 0.681 |
| LCLC-97TM1 | 0.271 | 0.261 | 0.225 | 0.219 | 0.205 | 0.219 | 0.256 | 0.224 | 0.283 | 0.255 | 0.528 | 0.942 | 0.504 | 0.605 | 1.35 | 0.312 | 0.328 | 0.241 | 0.281 | 0.281 |
| HCC-366 | 0.385 | 0.36 | 0.34 | 0.333 | 0.341 | 0.17 | 0.133 | 0.131 | 0.153 | 0.118 | 0.949 | 1.01 | 1.03 | 0.906 | 0.9 | 0.303 | 0.252 | 0.248 | 0.157 | 0.315 |
| NCI-H322M | 0.598 | 0.719 | 0.644 | 0.652 | 0.567 | 0.432 | 0.42 | 0.407 | 0.449 | 0.317 | 1.25 | 1.14 | 1.19 | 1.16 | 1.26 | 0.53 | 0.599 | 0.53 | 0.448 | 0.588 |
| NCI-H1355 | 0.376 | 0.359 | 0.331 | 0.342 | 0.365 | 0.551 | 0.616 | 0.414 | 0.539 | 0.428 | 1.24 | 1.26 | 1.11 | 1.28 | 1.08 | 0.869 | 0.665 | 0.597 | 0.541 | 0.641 |

— the supplement of paper PMC10307832
